Reference: paper PMC11206245 (Pharmaceuticals, 2024)
In brackets after ≈: the same amount, converted by molar mass. Entries after “also recorded” stand apart in the source; their conditions may differ. Read-outs that look alike come from different tables or passages of the source.

What was measured:
[1] = Study A dose-escalation protocol: 17-AAG pharmacokinetics in plasma (HPLC); type: in vivo; conditions: dogs; for AUC / Cmax / half-life: female, dog; for AUC: AUC0–8h; for half-life: read-out: t½ (converted)
Procedure: In Studies A and B, an intravenous catheter was placed in the cephalic vein of each animal’s right and left anterior limbs. […] Under both protocols, blood samples were centrifuged at 1500× g at 4 °C for 10 min.
For the mobile phase, acetonitrile (ACN, J.T.Baker®, Philadelphia, PA, USA) and water with 1% acetic acid (J.T.Baker®)were used. Briefly, aliquots of 200 µL of plasma or 100 µL of subcutaneous interstitial liquid were placed in a 1.5 mL microcentrifuge tube. Subsequently, 600 µL and 300 µL of ACN were added to all plasma and subcutaneous interstitial liquid samples, respectively. The mixture was vortexed for 30 s, followed by centrifugation at 3400× g for 10 min. Next, 500 µL of the plasma supernatant and 250 µL of the subcutaneous interstitial fluid were pipetted into a new vial. The method was validated in accordance with the International Council for Harmonization (ICH) technical requirements for the evaluation of medicinal products. […] No matrix interferences were observed. Two calibrated plasma curves of 17-AAG were validated with different injection volumes. […] Data acquisition and processing were performed using LabSolutions software (Version 5.3).
Cmax, half-life (t ½), distribution volume, and clearance were also determined. Data were analyzed in Excel and WinNonlin using a mono-compartmental model.

healthy dogs = assay: Study A dose-escalation protocol: tolerability, side and adverse effects; conditions: for Animals with increases in AST in plasma: reversible
Source text: Control animals were the same dogs that, prior to treatment, received an intravenous injection of the placebo solution. After that, samples were collected for hematological and biochemical analyses, as described in Section 4.2, “Animal Selection and Care Procedures”.
Blood samples were collected for hematological (hemogram) and biochemical analyses, as described in Section 4.2, “Animal Selection and Care Procedures”. This study utilized a 6-step dose-escalation design for the treated dogs. […] Wash-out periods, ranging from 7 to 10 days, were observed between each dosage step. […] Blood samples were collected at various times, as specified in Section 4.4.1, “Peripheral Blood Sample Collection”. […] Peripheral blood samples for hematological and biochemical analyses were collected on days 2, 4, 7, and 10 [105].
Two separate clinical reports were used to document data obtained from clinical evaluations. A general clinical description was used to note the following information daily: whether the animal was alert, prostrate, depressed, apathetic or aggressive, drinking water, and eating food normally, as well as feces and urine evaluations and the presence of vomit. Every two days, we noted the following parameters: body temperature (°C, measured using a rectal thermometer), heart rate (beats/minute), respiratory rate (cycles/minute), external mucous membrane coloration (conjunctiva and oral), hydration (skin elasticity), superficial lymph node enlargement (submandibular and popliteal), stool consistency, presence of lesions or secretions in the eyes, presence of nasal secretion (quantity and type), coat status, presence of skin lesions and ectoparasites, temperament, presence of claudication, and coordination and balance. Hemograms were performed following blood collection. The following biochemical analyses were performed: total proteins, albumin (A), globulins (Gs), A/G ratio, total cholesterol, bilirubin, renal profile (urea and creatinine), and hepatic enzymatic profiles (ALP, ALT, AST, AF, and GGT).

[2] = cited from earlier work
[3] = parameters: method as in earlier work; conditions: mice with MCF-7 breast tumors, 40 mg/kg intravenous dose; ref National Institute of Cancer's guide, https://dtp.cancer.gov/timeline/posters/AGG_Geldamycin.pdf; cited from earlier work
[4] = Study A, plasma, single IV dose 50 mg/m^2, mean ± SD
[5] = Study A, plasma, single IV dose 100 mg/m^2, mean ± SD
[6] = Study A, plasma, single IV dose 150 mg/m^2, mean ± SD
[7] = Study A, plasma, single IV dose 200 mg/m^2, mean ± SD
[8] = Study A, plasma, single IV dose 250 mg/m^2, mean ± SD
[9] = 50 mg/m2, Study A, plasma, single IV dose 50 mg/m^2, mean ± SD
[10] = 100 mg/m2, Study A, plasma, single IV dose 100 mg/m^2, mean ± SD
[11] = 150 mg/m2, Study A, plasma, single IV dose 150 mg/m^2, mean ± SD
[12] = 200 mg/m2, Study A, plasma, single IV dose 200 mg/m^2, mean ± SD
[13] = 250 mg/m2, Study A, plasma, single IV dose 250 mg/m^2, mean ± SD
[14] = Study A, healthy dogs n = 4, single IV dose 50 mg/m^2
[15] = Study A, healthy dogs n = 4, single IV dose 100 mg/m^2
[16] = Study A, healthy dogs n = 4, single IV dose 150 mg/m^2
[17] = Study A, healthy dogs n = 4, single IV dose 200 mg/m^2
[18] = Study A, healthy dogs n = 4, single IV dose 250 mg/m^2

## C=CCNC1=C2C[C@@H](C)C[C@H](OC)[C@H](O)[C@@H](C)/C=C(\C)[C@H](OC(N)=O)[C@@H](OC)/C=C\C=C(/C)C(=O)NC(=CC1=O)C2=O [17-AAG, 17-(allylamino)-17-demethoxygeldanamycin]
[1]; Study A, average over doses 50–250 mg/m^2
  Clearance from plasma, on average: 0.026 ± 0.010 L/h/m^2
[1]; Study A, plasma, IV doses 50–250 mg/m^2
  Dose-proportionality of Cmax and AUC: linear correlation between doses ranging from 50 to 200 mg/m^2; also recorded: dose-proportionate between the 50 and 200 mg/m^2 doses
[1]; [4]
  Clearance: 0.04 ± 0.02 L/m^2/h
  DV (distribution volume): 0.03 ± 0.02 L/m^2
[1]; [5]
  Clearance: 0.03 ± 0.01 L/m^2/h
  DV (distribution volume): 0.02 ± 0.01 L/m^2
[1]; [6]
  Clearance: 0.02 ± 0.00 L/m^2/h
  DV (distribution volume): 0.02 ± 0.00 L/m^2
[1]; [7]
  Clearance: 0.02 ± 0.00 L/m^2/h
  DV (distribution volume): 0.02 ± 0.00 L/m^2
[1]; [8]
  Clearance: 0.03 ± 0.01 L/m^2/h
  DV (distribution volume): 0.02 ± 0.00 L/m^2
[1]; abstract, after single IV doses 50–250 mg/m^2
  maximum plasma concentration (Cmax), lower end of range: 1405 ± 686 ng/mL
[1]; [9]
  AUC: 1480 ± 695 ng·h/mL
  half-life: 32.4 ± 1.8 min
[1]; 50 mg/m2, Study A, plasma, single IV dose 50 mg/m^2, mean ± SD, read-out: Cmax
  Cmax: 1410 ± 687 ng/mL
[1]; [10]
  AUC: 4380 ± 1630 ng·h/mL
  half-life: 36.6 ± 4.8 min
[1]; 100 mg/m2, Study A, plasma, single IV dose 100 mg/m^2, mean ± SD, read-out: Cmax
  Cmax: 3760 ± 1420 ng/mL
[1]; [11]
  AUC: 7930 ± 1550 ng·h/mL
  half-life: 35.4 ± 2.4 min
[1]; 150 mg/m2, Study A, plasma, single IV dose 150 mg/m^2, mean ± SD, read-out: Cmax
  Cmax: 6940 ± 1340 ng/mL
[1]; [12]
  AUC: 11900 ng·h/mL
  half-life: 40.2 ± 3 min
[1]; 200 mg/m2, Study A, plasma, single IV dose 200 mg/m^2, mean ± SD, read-out: Cmax
  Cmax: 9440 ± 991 ng/mL
[1]; [13]
  AUC: 9630 ± 2670 ng·h/mL
  half-life: 34.2 ± 12.6 min
[1]; 250 mg/m2, Study A, plasma, single IV dose 250 mg/m^2, mean ± SD, read-out: Cmax
  Cmax: 8610 ± 1060 ng/mL
[1]; plasma, abstract, after single IV doses 50–250 mg/m^2, read-out: maximum plasma concentration (Cmax), upper end of range
  Cmax: 9440 ± 991 ng/mL
Healthy dogs; Study A, 200 mg/m^2
  Dogs with bloody diarrhea: 75%
Healthy dogs; Study A, 250 mg/m^2
  Dogs with bloody diarrhea: 100%
Healthy dogs; Study A, dogs, 200 mg/m^2
  Animals presenting nausea during administration: all four animals
Healthy dogs; Study A, dogs, 250 mg/m^2
  Animals presenting nausea during administration: all four animals
Healthy dogs; [14]
  Animals with ALT alteration: 1 (25%) N (%)
  Animals with AST alteration: 0 N (%)
  Animals with bloody diarrhea: 0 N (%)
  Animals with diarrhea (pasty feces): 0 N (%)
  Animals with erythema: 0 N (%)
  Animals with hyperthermia: 0 N (%)
  Animals with nausea: 0 N (%)
  Animals with pruritus: 0 N (%)
  Animals with vomit: 0 N (%)
Healthy dogs; [15]
  Animals with ALT alteration: 2 (50%) N (%)
  Animals with AST alteration: 2 (50%) N (%)
  Animals with bloody diarrhea: 0 N (%)
  Animals with diarrhea (pasty feces): 1 (25%) N (%)
  Animals with erythema: 0 N (%)
  Animals with hyperthermia: 0 N (%)
  Animals with nausea: 0 N (%)
  Animals with pruritus: 0 N (%)
  Animals with vomit: 0 N (%)
Healthy dogs; [16]
  Animals with ALT alteration: 3 (75%) N (%)
  Animals with AST alteration: 2 (50%) N (%)
  Animals with bloody diarrhea: 0 N (%)
  Animals with diarrhea (pasty feces): 1 (25%) N (%)
  Animals with erythema: 1 (25%) N (%)
  Animals with hyperthermia: 1 (25%) N (%)
  Animals with nausea: 0 N (%)
  Animals with pruritus: 1 (25%) N (%)
  Animals with vomit: 0 N (%)
Healthy dogs; [17]
  Animals with ALT alteration: 3 (75%) N (%)
  Animals with AST alteration: 4 (100%) N (%)
  Animals with bloody diarrhea: 3 (75%) N (%)
  Animals with diarrhea (pasty feces): 1 (25%) N (%)
  Animals with erythema: 2 (50%) N (%)
  Animals with hyperthermia: 0 N (%)
  Animals with nausea: 4 (100%) N (%)
  Animals with pruritus: 3 (75%) N (%)
  Animals with vomit: 1 (25%) N (%)
Healthy dogs; [18]
  Animals with ALT alteration: 4 (100%) N (%)
  Animals with AST alteration: 4 (100%) N (%)
  Animals with bloody diarrhea: 4 (100%) N (%)
  Animals with diarrhea (pasty feces): 1 (25%) N (%)
  Animals with erythema: 4 (100%) N (%)
  Animals with hyperthermia: 1 (25%) N (%)
  Animals with nausea: 4 (100%) N (%)
  Animals with pruritus: 4 (100%) N (%)
  Animals with vomit: 1 (25%) N (%)
Healthy dogs; dogs, 100 mg/m^2
  Animals with increases in AST in plasma: 50%
Healthy dogs; dogs, 150 mg/m^2
  Animals with increases in AST in plasma: 50%
Healthy dogs; dogs, 200 mg/m^2
  Animals with increases in AST in plasma: 100%
Healthy dogs; dogs, 250 mg/m^2
  Animals with increases in AST in plasma: 100%
Healthy dogs; dogs, Study A, IV
  maximum tolerable dose: 150 mg/m^2
[2]; according to PubChem
  Solubility in Dimethyl Sulfoxide (DMSO): 100 mM (≈ 58.6 mg/mL)
  Solubility in ethanol: 10 mM (≈ 5.86 mg/mL)
[2]; aqueous
  Aqueous solubility: approximately 0.01 mg/mL
[3]
  maximum plasma half-life: 264 min
